Results as given in PubChem BioAssay (NCI).
“And” between values parts separate entries of the source, which are not always exact repeats. Identical values can stand only once.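 Cultured in 96-well plates, cells were exposed to test compound for 48 hours across five concentrations. Abbreviation: GI50, concentration required for 50% inhibition of growth. TGI marks complete inhibition of growth.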

What was measured:
Assay in all cases: NCI anticancer screen, dose series, 48 h
[1] = system: RPMI-8226 leukemia
[2] = system: M14 melanoma
[3] = system: HOP-92 NSCLC
[4] = system: TK-10 renal
[5] = system: CAKI-1 renal
[6] = system: OVCAR-4 ovarian
[7] = system: KM12 colon
[8] = system: UACC-257 melanoma
[9] = system: HCC-2998 colon
[10] = system: IGROV1 ovarian

| Compound | GI50 [1] | TGI [1] [µM] | GI50 [2] [µM] | TGI [2] | GI50 [3] | TGI [3] | GI50 [4] | TGI [4] [µM] | GI50 [5] | TGI [5] | GI50 [6] | TGI [6] [µM] | GI50 [7] [µM] | TGI [7] [µM] | GI50 [8] | TGI [8] | GI50 [9] [µM] | TGI [9] | GI50 [10] [µM] | TGI [10] |
| --- | --- | --- | --- | --- | --- | --- | --- | --- | --- | --- | --- | --- | --- | --- | --- | --- | --- | --- | --- | --- |
| CC(C)[C@H]1C(=O)N[C@@H](CCCN=C(N)N)C(=O)NCC(=O)N[C@@H](CC(=O)O)C(=O)N[C@H](Cc2ccccc2)C(=O)N1C | > 100 µM | > 100 | > 100 | > 100 µM | 0.385 µM | 2.47 µM | 1.43 µM | 4.06 | > 28.7 µM | > 100 µM | > 100 µM | > 100 | > 100 | > 100 | > 27.9 µM | > 100 µM | > 100 | > 100 µM | > 62.2 | > 100 µM |
| O=C1Nc2cccc3cc(NCC(O)CCl)cc1c23 (centres undefined) |  | > 100 |  | > 100 µM |  | > 100 µM |  | > 100 |  | > 100 µM |  | > 100 |  | > 100 |  | > 100 µM |  | > 100 µM |  | > 100 µM |
| CN1C(=O)C(Cl)(C(Cl)(Cl)S(=O)(=O)O)C(=O)c2ccccc21 (centres undefined) |  | > 100 |  | > 100 µM |  | > 100 µM |  | > 100 |  | > 100 µM |  | > 100 |  | > 100 |  | > 100 µM |  | > 100 µM |  | > 100 µM |
| Cc1cc(N/N=C/c2nc(-c3ccc(Cl)cc3)oc2C)c2cc(Cl)ccc2n1 | 2.07 µM | 5.21 | 1.96 | 4.13 µM | 3.53 µM | 16.6 µM | 1.85 µM | 3.48 | 2 µM | 4.33 µM | 1.68 µM | 3.33 | 1.97 | 4.6 | 1.93 µM | 4.52 µM | 2.86 | 7.32 µM | 3.38 | 12.6 µM |
| Cn1cc(CNCC2CCN(c3ncc(C(=O)NO)cn3)CC2)c2ccccc21 | < 0.01 µM | 40.5 | 0.0114 | 1.25 µM | < 0.0107 µM | 0.0399 µM | < 0.0107 µM | 0.0683 | 0.0233 µM | 0.169 µM | 0.0155 µM | 52.1 | 0.0215 | 0.589 | 0.0119 µM | 0.363 µM | 0.0141 | 0.0837 µM | 0.0245 | 0.352 µM |
| CCOc1ccccc1NC(=O)CCc1nc(=S)[nH][nH]1 |  | > 100 |  | > 100 µM |  | > 100 µM |  | > 100 |  | > 100 µM |  | > 100 |  | > 100 |  | > 100 µM |  | > 100 µM |  | > 100 µM |
| COC(=O)c1nc(N)[nH]c(=O)c1CCCCCc1c(C(=O)OC)nc(N)[nH]c1=O |  | > 50 |  | > 50 µM |  | > 50 µM |  | > 50 |  | > 50 µM |  | > 50 |  | > 50 |  | > 50 µM |  | > 50 µM |  | > 50 µM |
| Cc1nc(C(N)=S)sc1C(=O)C/C(=N/N)C(=O)Nc1cccc(Cl)c1C |  | > 100 |  | > 100 µM |  | > 100 µM |  | > 100 |  | > 100 µM |  | > 100 |  | > 100 |  | > 100 µM |  | > 100 µM |  | > 100 µM |
| COc1ccc(-c2cn[nH]c2-c2cc(OC)c3c(c2)OCCO3)cc1 | 0.373 µM | 25.2 | 0.0694 | 21.1 µM | 1.04 µM | 28.1 µM | 0.457 µM | 48.4 | 0.143 µM | 58.4 µM | 1.03 µM | > 100 | 0.0502 | 7.85 | 14.8 µM | 55.4 µM | 0.673 | 20.4 µM | 0.384 | 39.6 µM |
| C[C@]12CC[C@@H]3c4ccc(O)cc4C(O)C[C@H]3[C@@H]1CCC2=O (some centres undefined) | 60.6 µM | > 100 | > 100 | > 100 µM | 53.8 µM | > 100 µM | > 100 µM | > 100 | > 100 µM | > 100 µM | 61.1 µM | > 100 | > 100 | > 100 | > 100 µM | > 100 µM | 84.2 | > 100 µM | 58 | > 100 µM |
| CCOC(=O)c1cc(/C=C/C(C)=C/C(=O)OC)n(C)c1C |  | > 100 |  | > 100 µM |  | > 100 µM |  | > 100 |  | > 100 µM |  | > 100 |  | > 100 |  | > 100 µM |  | > 100 µM |  | > 100 µM |
| Oc1ccccc1-c1nc2c3ccccc3c3ccccc3c2[nH]1 | 1.93 µM | 14.4 | 11.7 | 24 µM | 1.55 µM | 6.48 µM | 9.26 µM | 20.8 | 1.67 µM | 9.44 µM | 12.7 µM | 25.3 | 4.32 | 14.1 | 14.1 µM | 27.1 µM | 4.13 | 12.1 µM | 0.0614 | 14.4 µM |
| CC[C@@]1(O)C(=O)OCc2c1cc1n(c2=O)Cc2cc3cc(N)ccc3nc2-1 | 0.106 µM and 0.0994 µM | 4.45 | 0.0162 | 0.404 µM and 0.0409 µM | 0.0132 µM and < 0.025 µM | 0.773 µM and 0.247 µM | 0.385 µM and 0.169 µM |  | 0.00361 µM and 0.026 µM | 1.62 µM and 1.21 µM | 0.048 µM and 0.169 µM | 0.233 | 0.232 | 2.9 | 0.0441 µM and 0.0423 µM | 0.642 µM and 0.375 µM | 0.0707 | 0.495 µM and 1.36 µM | 0.056 | 3.06 µM and 2.21 µM |
| Nc1nc(CCC(=O)Nc2cccc(C(F)(F)F)c2)cc(-c2ccc3ccccc3c2)n1 |  | > 100 |  | > 100 µM |  | > 100 µM |  | > 100 |  | > 100 µM |  | > 100 |  | > 100 |  | > 100 µM |  | > 100 µM |  | > 100 µM |
| COc1ccc(CN2c3ccccc3CCc3ccccc32)cc1F | 0.644 µM | > 100 | 0.354 | > 100 µM | 0.587 µM | 48 µM | 0.611 µM | > 100 | 0.549 µM | > 100 µM | 0.868 µM | > 100 | 0.387 | > 100 | > 100 µM | > 100 µM | 8.9 | > 100 µM | 1.57 | > 100 µM |
| C=C=C(C(=O)OC)S(=O)c1ccc([N+](=O)[O-])cc1[N+](=O)[O-] (centres undefined) |  | 55.1 |  | > 69.5 µM |  | 66.7 µM |  | > 85.7 |  | 63.1 µM |  | 63.6 |  | > 72 |  | > 79.9 µM |  | 31.2 µM |  | 97.5 µM |
| O=C1NC2(CN3CCC2CC3)C(=O)N1CN(Cc1ccccc1)c1ccccc1 (centres undefined) |  | > 100 |  | > 100 µM |  | > 100 µM |  | > 100 |  | > 100 µM |  | > 100 |  | > 100 |  | > 100 µM |  | > 100 µM |  | > 100 µM |
| NC(=O)c1ccc(C2C3=C(CCCC3=O)OC3=C2C(=O)c2ccccc2C3=O)cc1 (centres undefined) | 0.521 µM | 2.63 | 0.609 | 2.03 µM | 0.855 µM | 2.91 µM | 1.82 µM | 3.22 | 1.9 µM | 3.67 µM | 0.228 µM | 0.95 | 1.34 | 4.52 | 0.232 µM | 1.26 µM | 2.06 | 4.29 µM | 0.641 | 2.12 µM |
